Patent US7326725B2, “Fungicidal composition based on at least one pyridylmethylbenzamide derivatives and at least on dithiocarbamate derivative” (Bayer Cropscience S.A., priority 2001, dated 2008)

System: Plasmopara viticola
Test: Curative test of 24 hours on grapevine infected with Plasmopara viticola
Format: in vivo
Settings: single compound, curative spray on Chardonay grapevine, assessed after six days at 20° C.
Protocol: The trials consisted in curative tests of 24 hours on grapevine infected with Plasmopara viticola.
Grapevine (Chardonay variety) plants are grown on sandy soil in plastic pots, with one plant per pot. The plants which are two months old (6- to 7-leaf stage) are inoculated by spraying an aqueous suspension of Plasmopara viticola sporocysts obtained from infected leaves. The concentration of sporocysts is about 100 000 units per ml.
After infection, the inoculated plants are subjected to a curative treatment by spraying with compound (I) alone and compound (II) alone, and with a mixture of compound (I) and compound (II), in each case applied at a dose of 500 l/ha.
After infection and curative treatment, the plants are covered and left for six days at 20° C.
The percentage control of the disease (efficacy: see below) is calculated for each treatment with reference to the untreated plants and the expected results are calculated using the Colby formula (see below).
The difference between the real results and the expected results is used to determine the synergy between the two fungicidal compounds of the composition according to the invention.
The efficacy of the treatment is calculated using the following Abbott formula: […]
Analysis of the results is carried out using the Colby model:
[formula] in which E represents the expected percentage of inhibition of the disease for the combination of the two fungicides at defined doses (for example equal to x and y respectively), x is the percentage of inhibition observed for the disease by the compound (I) at a defined dose (equal to x), y is the percentage of inhibition observed for the disease by the compound (II) at a defined dose (equal to y). When the percentage of inhibition observed for the combination is greater than E, there is a synergistic effect.

Which results are given for O=C(NCc1ncc(C(F)(F)F)cc1Cl)c1c(Cl)cccc1Cl [(Ia), 2,6-dichloro-N-{[3-chloro-5-(trifluoromethyl)-2-pyridinyl]methyl}-benzamide]?
Percentage efficacy (level 0.1 ppm): 11.9%; Percentage efficacy (level 1 ppm): 58.2%; Percentage efficacy (level 5 ppm): 65.7%

With mancozeb as the molecule, how does the Percentage efficacy (level 1 ppm) read?
Its Percentage efficacy is 23.1%.

What about the Percentage efficacy (level 10 ppm) of the same molecule?
The Percentage efficacy was 5.2%.

What about the Percentage efficacy (level 25 ppm) of the same molecule?
The Percentage efficacy was 17.2%.
